{"source": "patent US6825326B2", "about": "“PSCA: prostate stem cell antigen and uses thereof” (The Regents of the University of California, priority 1997, dated 2004)", "key": {"[1]": {"assay": "LD50 experiment to determine the maximum tolerable dose", "assay_type": "in vivo, mice", "method": "An LD50 experiment was performed to determine the maximum tolerable dose of doxorubicin. Doxorubicin (Sigma) and was resuspended in sterile PBS. Doxorubicin was administered by intraperitoneal injection, at the following doses: 50 μg, 25 μg, 12.5 μg, and 6.75 μg. […] At the lower dose ranges, the mice survived for more than 4 weeks. The maximal tolerable dose was 25 μg."}, "PC3-PSCA tumors": {"system": "PC3-PSCA tumors", "assay": "Established subcutaneous PC3-PSCA tumors", "conditions": "day 43; 1G8 1 mg 3×/week 3 weeks; doxorubicin 25 μg once weekly 3 weeks", "experimental": "PC3-PSCA cells were derived by retroviral gene transfer. […] Amphotropic retrovirus was generated by co-transfection of 293T cells with pSR-α containing PSCA and a retroviral helper plasmid containing the amphotropic envelope protein. PC3 cells were subsequently infected with the PSCA containing amphotropic retrovirus, and 48 hours after infection the cells were selected by growth in medium containing the neomycin analogue G418. After 2-3 weeks of selection and expansion, a Western blot was performed to confirm that the PC3-PSCA cells express PSCA protein.\nPC3-PSCA cells were grown in T-150 flasks in DMEM+10% FBS prior to the injections. The cells were grown to log phase, harvested, washed, counted, then mixed with Matrigel at a 1:1 dilution, and kept on ice. For injection, male IcR-SCID mice were shaved on their flanks, and each mouse received a single subcutaneous injection of about 1×10^6 cells in a volume of 100 μl on the right flank. The growth of PC3-PSCA tumors was followed by caliper measurements of the growing tumors. The mice were selected for treatment when the tumor reached the size of 100-200 mm^3, at approximately 9 days after the subcutaneous injection. The tumor size was measured at days +9, +15, +23, +29, +36, and +43 post injection.\nThe mice treated with 1G8, were administered 1 mg of 1G8, three times per week for three consecutive weeks. […]"}}, "data": [{"smiles": "COc1cccc2c1C(=O)c1c(O)c3c(c(O)c1C2=O)C[C@@](O)(C(=O)CO)C[C@@H]3O[C@H]1C[C@H](N)[C@H](O)[C@H](C)O1", "note": "[doxorubicin]", "values": [{"measurement": "survival at the lower dose ranges", "setting": "[1]; 25 μg, 12.5 μg, 6.75 μg intraperitoneal", "value": "more than 4 weeks"}, {"measurement": "mortality at the highest dose", "setting": "[1]; 50 μg intraperitoneal", "value": "all the mice died within 2 weeks"}, {"measurement": "maximal tolerable dose", "setting": "[1]; intraperitoneal injection", "value": 25, "unit": "µg"}, {"measurement": "growth inhibition compared to PBS", "setting": "PC3-PSCA tumors", "value": 4, "unit": "%"}]}]}
